From article PMC11808397, “Development of selective nanomolar cyclic peptide ligands as GBA1 enzyme stabilisers” (RSC Chemical Biology, 2025)
Positions of bridges follow the written chain, without caps; N, C: chain ends. Non-standard residues stand in square brackets, D forms with d. Residues, ends and D or L forms follow the SMILES beside them.

How the values were obtained:
GBA3 = target: T1, GBA3 (Homo sapiens, UniProt Q9H227); test: GBA3 inhibition in overexpressing HEK293T lysates; type: biochemical; conditions: 100 mM HEPES, 4-MU substrate
T1 construct: expressed in transfected cells
T1 sequence (Q9H227 1-469): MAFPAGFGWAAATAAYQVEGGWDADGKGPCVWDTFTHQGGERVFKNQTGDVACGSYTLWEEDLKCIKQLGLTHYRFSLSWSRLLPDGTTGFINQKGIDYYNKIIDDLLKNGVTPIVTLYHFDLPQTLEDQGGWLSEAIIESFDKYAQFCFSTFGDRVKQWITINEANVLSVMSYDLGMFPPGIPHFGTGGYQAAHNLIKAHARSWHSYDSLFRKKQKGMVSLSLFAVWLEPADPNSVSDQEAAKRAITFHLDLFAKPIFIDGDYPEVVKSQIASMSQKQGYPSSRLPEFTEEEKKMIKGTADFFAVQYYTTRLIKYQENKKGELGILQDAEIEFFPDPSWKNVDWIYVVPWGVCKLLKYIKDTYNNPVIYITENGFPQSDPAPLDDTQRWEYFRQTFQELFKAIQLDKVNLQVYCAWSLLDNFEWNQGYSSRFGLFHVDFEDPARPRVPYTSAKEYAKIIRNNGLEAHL
Method: (§1) Based on the pull-down validation, a set of eight cyclic peptides (L1, L2, L4, L6, D1, D8, D12 and D13) were identified, synthesized, and evaluated for their inhibitory potency against recombinant human GBA1 (rhGBA1, Cerezyme®) and their selectivity over human β-glucosidases GBA2 and GBA3. Half-maximum inhibitory concentration (IC50) values for β-glucosidases were determined in vitro by measuring hydrolysis of 4-methylumbelliferyl-β-D-glucopyranoside (4-MU-β-D-Glu) fluorogenic substrate. […]
Pure product fractions were pooled, lyophilized, and dissolved again in DMSO before concentration was determined by A280 using a sample diluted in phosphate buffer at pH 7.4 and extinction coefficients determined from the sequence using the Expasy ProtParam online tool (https://web.expasy.org/protparam/). […]
(§2) 2.5. In vitro IC50 and Ki measurements […]
(§3) nM) at 37 °C for 30 min. Following this, 100 µL of 4MU substrate was added and the samples were again incubated at 37 °C for 30 min. The reaction was quenched using excess 1 M NaOH-glycine (200 µL, pH 10.3) and 4MU fluorescence was measured using a LS55 fluorimeter (λEx 366 nm and λEm 445 […]
(§4) GBA2 and GBA3 IC50 values were determined following a similar protocol,5 using stable GBA2 or GBA3 HEK293T over-expression cell lysates and McIlvaine buffer pH 5.8 with 0.1 % BSA (w/v) and 100 mM HEPES with 0.1 % BSA, respectively. Covalent inhibitor of endogenous GBA1 (1 µM Bodipy green-cyclophellitol β-epoxide activity based probe) was added for both GBA2 and GBA3 assays, and GBA2 inhibitor N-(5-adamantane-1-yl-methoxy-pentyl)-deoxynojirimycin, AMP-DNM at 1 nM) was added for GBA3 assay. Cell lysates were pre-incubated with the aforementioned GBA1/GBA2 inhibitors for 30 min at 37 °C (12.5 µL) and subsequently incubated with the tested ligands at a range of concentrations for 30 min at 37 °C (12.5 µL), after which 100 µL 4MU-β-D-glucopyranoside was added for a final incubation of 30 min at 37 °C, quenched with 200 µL 1 M NaOH-glycine (pH 10.3) and fluorescence was measured. IC50 values were calculated using GraphPad Prism version 8.

GBA2 = target: T2, GBA2 (Homo sapiens, UniProt Q9HCG7); test: GBA2 inhibition in overexpressing HEK293T lysates; type: biochemical; conditions: McIlvaine pH 5.8, 4-MU substrate
T2 construct: expressed in transfected cells
T2 sequence (Q9HCG7 1-927): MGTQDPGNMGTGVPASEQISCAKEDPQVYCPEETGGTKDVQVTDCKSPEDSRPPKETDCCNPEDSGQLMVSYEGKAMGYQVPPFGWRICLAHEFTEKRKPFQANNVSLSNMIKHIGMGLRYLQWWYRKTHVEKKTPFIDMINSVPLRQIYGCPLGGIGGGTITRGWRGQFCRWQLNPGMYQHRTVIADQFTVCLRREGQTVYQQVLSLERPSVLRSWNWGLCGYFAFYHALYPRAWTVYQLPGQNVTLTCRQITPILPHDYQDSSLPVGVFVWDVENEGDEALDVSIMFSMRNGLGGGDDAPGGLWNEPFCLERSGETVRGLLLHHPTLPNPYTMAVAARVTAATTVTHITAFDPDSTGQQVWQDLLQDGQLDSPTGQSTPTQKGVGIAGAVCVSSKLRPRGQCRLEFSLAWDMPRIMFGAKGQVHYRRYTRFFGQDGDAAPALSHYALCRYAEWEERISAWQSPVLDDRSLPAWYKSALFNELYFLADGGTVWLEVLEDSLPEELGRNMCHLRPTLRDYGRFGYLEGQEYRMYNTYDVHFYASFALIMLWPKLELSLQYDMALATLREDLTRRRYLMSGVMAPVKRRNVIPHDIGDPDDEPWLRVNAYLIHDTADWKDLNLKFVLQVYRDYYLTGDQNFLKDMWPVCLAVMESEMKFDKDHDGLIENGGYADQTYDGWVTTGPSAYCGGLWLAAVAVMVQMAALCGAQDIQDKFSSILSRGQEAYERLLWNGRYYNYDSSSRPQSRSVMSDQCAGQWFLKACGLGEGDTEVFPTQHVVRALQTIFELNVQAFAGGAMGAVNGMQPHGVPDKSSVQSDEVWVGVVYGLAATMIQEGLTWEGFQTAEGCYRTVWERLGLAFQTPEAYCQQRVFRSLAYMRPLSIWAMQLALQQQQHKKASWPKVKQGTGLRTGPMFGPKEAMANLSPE
Method: as §1, §2, §3, §4

| SMILES | IC50 (GBA3) [µM] | IC50 (GBA2) [µM] |
| --- | --- | --- |
| CC(C)C[C@H](NC(=O)[C@@H](NC(=O)[C@H](CCCNC(=N)N)NC(=O)[C@@H]1CSCC(=O)N[C@H](Cc2ccc(O)cc2)C(=O)N[C@@H]([C@@H](C)O)C(=O)N2CCC[C@H]2C(=O)NCC(=O)N[C@@H](Cc2ccc(O)cc2)C(=O)N[C@@H](C(C)C)C(=O)N[C@@H](Cc2ccc(O)cc2)C(=O)N1)C(C)C)C(=O)N[C@@H](CCCCN)C(=O)N[C@@H](Cc1ccc(O)cc1)C(=O)N[C@@H](CS)C(N)=O [D8] ({CH2CO}-[dY]TPGYVYCRVLKYC-NH2; thioether N-8) | > 100 | > 100 |
| CC[C@H](C)[C@H](NC(=O)[C@H](CC(C)C)NC(=O)[C@H](Cc1ccc(O)cc1)NC(=O)[C@H](Cc1ccc(O)cc1)NC(=O)[C@@H]1CSCC(=O)N[C@H](Cc2ccc(O)cc2)C(=O)N[C@@H](CCCNC(=N)N)C(=O)N[C@@H](C(C)C)C(=O)N1)C(=O)N[C@H](C(=O)N[C@H](C(=O)N[C@@H](CC(C)C)C(=O)N[C@@H](CC(=O)O)C(=O)N[C@@H](CS)C(N)=O)C(C)C)[C@@H](C)O [D1] ({CH2CO}-[dY]RVCYYLITVLDC-NH2; thioether N-4) | > 100 | > 100 |
| CC(C)C[C@@H]1NC(=O)CNC(=O)[C@H](CC(C)C)NC(=O)[C@@H](Cc2ccc(O)cc2)NC(=O)CSC[C@@H](C(N)=O)NC(=O)[C@H](CO)NC(=O)[C@H](CCCCN)NC(=O)[C@H](CC(C)C)NC(=O)[C@H](Cc2ccccc2)NC(=O)[C@H](CCCNC(=N)N)NC(=O)[C@H](Cc2ccc(O)cc2)NC(=O)[C@H](Cc2c[nH]c3ccccc23)NC1=O [D12] ({CH2CO}-[dY]LGLWYRFLKSC-NH2; thioether N-12) | ~85 | > 100 |

More lines, now with the values ahead:

| IC50 (GBA3) [µM] | IC50 (GBA2) [µM] | SMILES |
| --- | --- | --- |
| > 100 | > 100 | CC[C@H](C)[C@H](NC(=O)[C@H](CCCNC(=N)N)NC(=O)[C@@H]1CSCC(=O)N[C@@H](Cc2ccc(O)cc2)C(=O)N[C@@H](C)C(=O)N[C@@H](Cc2ccc(O)cc2)C(=O)N[C@@H](Cc2c[nH]c3ccccc23)C(=O)N[C@@H](Cc2c[nH]c3ccccc23)C(=O)N[C@@H](CC(C)C)C(=O)N1)C(=O)N1CCC[C@H]1C(=O)N[C@@H](Cc1c[nH]c2ccccc12)C(=O)N[C@@H](CC(C)C)C(=O)N[C@@H](CO)C(=O)N[C@H](C(N)=O)C(C)C [L2] ({CH2CO}-YAYWWLCRIPWLSV-NH2; thioether N-7) |
| > 100 | > 100 | CC[C@H](C)[C@@H]1NC(=O)[C@H](Cc2ccc(O)cc2)NC(=O)CSC[C@@H](C(N)=O)NC(=O)[C@H](Cc2c[nH]c3ccccc23)NC(=O)[C@H](CCC(N)=O)NC(=O)[C@H]([C@@H](C)CC)NC(=O)[C@H]([C@@H](C)CC)NC(=O)[C@@H]2CCCN2C(=O)[C@H](C(C)C)NC(=O)[C@H](Cc2ccc(O)cc2)NC(=O)[C@H](Cc2c[nH]c3ccccc23)NC(=O)[C@H](CO)NC1=O [L6] ({CH2CO}-YISWYVPIIQWC-NH2; thioether N-12) |
| > 100 | > 100 | CC(C)C[C@@H]1NC(=O)CNC(=O)[C@H](Cc2ccccc2)NC(=O)[C@H](CC(C)C)NC(=O)[C@@H]2CCCN2C(=O)[C@H](Cc2ccc(O)cc2)NC(=O)CSC[C@@H](C(=O)N2CCC[C@H]2C(=O)N[C@@H](CC(N)=O)C(=O)N[C@@H](Cc2c[nH]c3ccccc23)C(=O)N[C@@H](Cc2ccccc2)C(=O)N2CCC[C@H]2C(=O)N[C@@H](Cc2ccc(O)cc2)C(=O)N[C@@H](CCC(N)=O)C(=O)N[C@@H](CS)C(N)=O)NC(=O)[C@H](CO)NC(=O)[C@H](Cc2ccccc2)NC1=O [L4] ({CH2CO}-YPLFGLFSCPNWFPYQC-NH2; thioether N-9) |
| > 100 | > 100 | CC[C@H](C)[C@@H]1NC(=O)[C@H](CO)NC(=O)[C@H](CS)NC(=O)CNC(=O)CNC(=O)[C@H](CC(C)C)NC(=O)[C@H](Cc2ccc(O)cc2)NC(=O)[C@H](C(C)C)NC(=O)[C@H](CC(C)C)NC(=O)[C@H](CCCNC(=N)N)NC(=O)[C@@H]2CCCN2C(=O)[C@H](Cc2ccc(O)cc2)NC(=O)CSC[C@@H](C(N)=O)NC(=O)[C@H](CCC(=O)O)NC(=O)[C@H](CC(C)C)NC(=O)[C@H](CC(C)C)NC1=O [L1] ({CH2CO}-YPRLVYLGGCSILLEC-NH2; thioether N-16) |
